Literature values as cited in patent US12577179B2, “Methods and compositions for soil regeneration and improved soil hydrology” (Locus Solutions IPCo, LLC, priority 2021, dated 2026).

conditions: surfactant micelles; no method or source given

micelle size | Compound
11.7 nm | CCCCCCCC/C=C\CCCCCCCC(=O)OCCOCC(OCCO)C1OCC(OCCO)C1OCCO (stereo not shown) [Tween-80]
3.5-6 nm | CCCCCCCCCCCCOS(=O)(=O)[O-].[Na+] [sodium dodecyl sulfate]
15.4 nm | Nonidet P40
7.5 nm | Triton X-100
